For assay [1] the following is noted: literature report; cited from earlier work.
The conditions of assay [2]: literature report; cited from earlier work. This is another data set of the same source.
Assay [3] deals with synaptosomes from the striatal area of rat brain (dopamine release). As to the kind of experiment: Dopamine release from striatal synaptosomes. The class given is cell-based, rat (Sprague-Dawley). On the procedure:
Dopamine release was measured by preparing synaptosomes from the striatal area of rat brain obtained from Sprague-Dawley rats generally according to the procedures set forth by Nagy et al., J. Neurochem., Vol. 43, pp. 1114-1123 (1984). Striata from 4 rats were homogenized in 2 ml of 0.32M sucrose buffered with 5 mM HEPES (pH 7.5), using a glass-Teflon tissue grinder. The homogenate was diluted to 5 ml with additional homogenization solution and centrifuged at 1,000×g for 10 min. This procedure was repeated on the new pellet and the resulting supernatant was centrifuged at 12,000×g for 20 min. A 3 layer discontinuous Percoll gradient consisting of 16 percent, 10 percent and 7.5 percent Percoll in HEPES-buffered sucrose was made with the final pellet dispersed in the top layer. […] Using this method, 30 to 90 percent of the dopamine was taken up into the synaptosomes, as determined by scintillation counting following filtration through glass fiber filters soaked with 0.5 percent polyethyleneimine. […] After the addition of 0.2 ml of a solution containing various concentrations of ligand, the perfusate was collected into scintillation vials at 1 min. intervals and the dopamine released was quantified by scintillation counting. Peaks of radioactivity released above background were summed and the average basal release during that time was subtracted from the total.

Results on four compounds are retold here after patent US5885998A (priority 1998, dated 1999).

For `CN1CCC[C@H]1c1cccnc1` [Sample No. C-1, (S)-(-)-nicotine], in assay [1], the “effect towards the treatment of various CNS disorders” value was “positive effect towards the treatment of various CNS disorders”.

Take `CN1CCCC1c1cccnc1` (stereo not shown) [nicotine]: the “potentiation of certain pharmaceutical compositions used for treatment of certain CNS disorders” value in assay [2] is recorded as “potentiates the pharmacological behavior of certain pharmaceutical compositions”.

For the compound `CNCC/C=C\c1cccnc1` [Sample No. 5, (Z)-metanicotine], the “Dopamine Release Emax” value in assay [3] (release as percentage of release obtained with an equal concentration of (S)-(-)-nicotine) came to 88 % nicotine.

On to `CNCC/C=C/c1cccnc1` [Sample No. 8, (E)-metanicotine], for which the maximal effect (Emax) in assay [3] (Rattus norvegicus) came to 80%.
